Reference: US7163799B2, “Neuromedin U receptor NMUR2 and nucleotides encoding it” (Merck & Co., Inc., priority 2000, dated 2007)
Where no end group is shown, it is not given here.

Experiments:
Type in all cases: in vivo, rat
rats [1] = test: Food intake and feeding duration in rats after ICV administration; conditions: for overnight food intake, change expressed as percentage of control group: n=12 per group
Experimental: Male rats (Charles River Sprague Dawley) weighing 250–350 g were maintained in a temperature and humidity controlled facility with a 12 hour light/dark cycle (4:00 AM lights on). Rats were individually housed in custom designed shoebox cages on wire floors and fed ad libitum with fresh diet provided daily. […] Attached to the food drawers was an infrared feeding monitor that projects a beam across the drawer above the food (MiniMitter, Inc., Sun River, Oreg.). When the animal broke the infrared beam it caused a switch closure. An oscillator then sent off pulses (one pulse/second) and the total number of pulses indicated the length of time that the beam was broken which corresponds to the length of time spent feeding (recorded as feeding duration).
Cannulation and ICV administration were performed essentially as described in Murphy et al 1998 Neuropeptides 32:491–497, which is hereby incorporated by reference. After cannulation, rats were allowed to recover a minimum of seven days before injection with test compounds. All test substances were dissolved in artificial cerebral spinal fluid (aCSF). Rats were injected ICV with 1, 3, or 10 μg of rat NMU-23 (Phoenix Pharmaceuticals). Additional rats were injected ICV with either 0.3 or 0.03 μg of MT-II (Peninsula Laboratories) as a positive control for food intake suppression (melanocortin receptor agonist). […] Another group of ICV-cannulated rats were used in conditioned taste aversion (CTA) and sodium appetite (SA) aversion assays.

rats [2] = test: Conditioned taste aversion (CTA) assay in rats; conditions: for saccharin intake relative to total intake (taste aversion): 24 hours post-dosing
Experimental: In the CTA study, rats were conditioned to two hour daily access to water, with access to water from two bottles for two hours each day for three days. On the fourth day, rats were given 0.15% saccharin for the two hour period instead of water and saccharin consumption measured. Rats were injected NMU-23 (0, 3, or 10 μg, ICV). LiCl was used as a positive control (0.15 M; 2 ml/kg, i.p.). On the fifth day, rats were given saccharin alone for the first hour, then water was added for the remaining 23 hours. Fluid consumption was measured at 1, 2, and 24 hours post injection. Aversion was assessed as a function of drinking preferences.

rats [3] = test: Sodium (salt) appetite aversion assay in rats; conditions: sodium-depleted rats
Experimental: In the salt appetite assay, rats were given 0.5 M NaCl salt water to drink for three days along with food and regular water. After three days, two injections of furosemide (5 mg /0.2 ml, s.c.) were given at one hour apart to sodium-deplete the rats. Rats were then returned to salt-free water and given a sodium-deficient diet. Rats actively seek to defend their internal sodium levels. Consequently, when sodium is depleted, they will avidly drink salt solutions unless ill or nauseous. Twenty-four hours following furosemide administration, rats were given NMU (0, 3, or 10 μg, ICV), or LiCl (0.15 M, 2 ml/kg, i.p.) and given water and 0.5 M NaCl to drink. Fluid consumption was measured 1, 2, and 24 hours post dosing.

Q: Which overnight food intake (rats [1]; 0.3 μg ICV, positive control) does the source give for MT-II here?
A: significantly decreased

Q: And the “cumulative feeding duration, change” value (rats [1]; ICV, positive control)?
A: −71%

Q: YKVNEYQGPVAPSGGFFLFRPRN-NH2 [NMU] was tested. Which “saccharin intake relative to total intake (taste aversion)” value (rats [2]; 3 μg ICV) did it give?
A: did not decrease saccharin intake

Q: And the “saccharin intake relative to total intake (taste aversion)” value (rats [2]; 10 μg ICV)?
A: did not decrease saccharin intake

Q: What about the “total amount of salt intake (sodium appetite)” value (rats [3]; 3 μg ICV) of the same compound?
A: did not significantly change

Q: What about the “total amount of salt intake (sodium appetite)” value (rats [3]; 10 μg ICV) of the same compound?
A: did not significantly change

Q: And the “cumulative feeding duration, change” value (rats [1]; 3 μg ICV)?
A: −33%

Q: And the “overnight food intake, change expressed as percentage of control group” value (rats [1]; 3 μg ICV)?
A: −38±6%

Q: And the “cumulative feeding duration, change” value (rats [1]; 10 μg ICV)?
A: −39%

Q: What about the “overnight food intake, change expressed as percentage of control group” value (rats [1]; 10 μg ICV) of the same compound?
A: −32±3%

Q: For [Cl-].[Li+] [LiCl], which “saccharin intake (taste aversion)” value (rats [2]; 0.15 M, 2 ml/kg i.p., emetic control) is on record?
A: decreased saccharin intake

Q: What about the “salt intake (sodium appetite)” value (rats [3]; 0.15 M, 2 ml/kg i.p.) of the same compound?
A: significantly decreased salt intake
